This experiment concerns Bmi-1 protein. As to the kind of experiment: Sandwich ELISA Assay: Bmi-1 protein level in HT-1080 cells treated with test compounds. Format: cell-based. Summed up:
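HT-1080 cells exposed to compounds (final DMSO 0.5%) for 40-48 h at 37° C, 5% CO2, then lysed. Bmi-1 quantified by sandwich ELISA (mouse anti-Bmi-1 capture, rabbit anti-Bmi-1 detection, HRP anti-rabbit, TMB), read at OD450 with OD570 reference, against recombinant GST-Bmi-1 standard curve (0-8000 pg/mL).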
(In general: An ELISA detects its analyte on a solid surface through an enzyme-linked reagent.)
`CCc1nc2ccccc2n1-c1cnnc(Nc2ccc(C(F)(F)F)cc2)n1` [Cpd 124, 5-(2-ethyl-1H-benzimidazol-1-yl)-N-[4-(trifluoromethyl)phenyl]-1,2,4-triazin-3-amine] came in with an EC50 of 100 to 3000 nM. Next, `CCc1nc2ccc(F)cc2n1-c1cnnc(Nc2ccc(OC(F)F)cc2)n1` [Cpd 137, N-[4-(difluoromethoxy)phenyl]-5-(2-ethyl-6-fluoro-1H-benzimidazol-1-yl)-1,2,4-triazin-3-amine]: 100 to 3000 nM; `CCc1nc2ccccc2n1-c1nncc(Nc2ccc(C(F)(F)F)cc2)n1` [Cpd 98, 3-(2-ethyl-1H-benzimidazol-1-yl)-N-[4-(trifluoromethyl)phenyl]-1,2,4-triazin-5-amine]: 10 to 100 nM; `Cc1nc2ncc(F)cc2n1-c1nc(N)nc(Nc2ccc(C(F)(F)F)cc2)n1` [Cpd 24, 6-(6-fluoro-2-methyl-1H-imidazo[4,5-b]pyridin-1-yl)-N-[4-(trifluoromethyl)phenyl]-1,3,5-triazine-2,4-diamine]: 100 to 3000 nM. The value for `CCc1nc2ccccc2n1-c1nc(N)nc(Nc2ccc(Br)cc2)n1` [Cpd 207, N-(4-bromophenyl)-6-(2-ethyl-1H-benzimidazol-1-yl)-1,3,5-triazine-2,4-diamine] was 1 to 10 nM; that for `Cc1cccc(Nc2nc(N)nc(-n3c(C4CC4)nc4ccccc43)n2)c1` [Cpd 156, 6-(2-cyclopropyl-1H-benzimidazol-1-yl)-N-(3-methylphenyl)-1,3,5-triazine-2,4-diamine] was 100 to 3000 nM; that for `CSc1ccc(Nc2nc(N)nc(-n3c(C)nc4ccc(F)cc43)n2)cc1` [Cpd 226, 6-(6-fluoro-2-methyl-1H-benzimidazol-1-yl)-N-[4-(methylsulfanyl)phenyl]-1,3,5-triazine-2,4-diamine] was 10 to 100 nM. The value for `CCc1nc2c(F)cc(F)cc2n1-c1nc(N)nc(Nc2ccc(Cl)c(F)c2)n1` [Cpd 200, N-(4-chloro-3-fluorophenyl)-6-(2-ethyl-4,6-difluoro-1H-benzimidazol-1-yl)-1,3,5-triazine-2,4-diamine] was 100 to 3000 nM. Take `Cc1ccc(Nc2nc(N)nc(-n3c(C4CC4)nc4ccc(F)cc43)n2)cc1` [Cpd 177, 6-(2-cyclopropyl-6-fluoro-1H-benzimidazol-1-yl)-N-(4-methylphenyl)-1,3,5-triazine-2,4-diamine]: the EC50 lay in the range of 1 to 10 nM. Next, `CCc1nc2c(F)cccc2n1-c1nc(N)nc(Nc2ccc(Br)cc2)n1` [Cpd 216, N-(4-bromophenyl)-6-(2-ethyl-4-fluoro-1H-benzimidazol-1-yl)-1,3,5-triazine-2,4-diamine]: 1 to 10 nM; `Cc1nc2ncc(Br)cc2n1-c1nc(N)nc(Nc2ccc(OC(F)F)cc2)n1` [Cpd 38, 6-(6-bromo-2-methyl-1H-imidazo[4,5-b]pyridin-1-yl)-N-[4-(difluoromethoxy)phenyl]-1,3,5-triazine-2,4-diamine]: 10 to 100 nM; `COc1ccc(Nc2nc(N)nc(-n3c(C)nc4ccccc43)n2)cc1` [Cpd 147, N-(4-methoxyphenyl)-6-(2-methyl-1H-benzimidazol-1-yl)-1,3,5-triazine-2,4-diamine]: 1 to 10 nM. Take `CCc1nc2ncc(F)cc2n1-c1nc(N)nc(Nc2ccc(C(F)(F)F)cc2)n1` [Cpd 82, 6-(2-ethyl-6-fluoro-1H-imidazo[4,5-b]pyridin-1-yl)-N-[4-(trifluoromethyl)phenyl]-1,3,5-triazine-2,4-diamine]: the EC50 fell in the range of 10 to 100 nM. The value for `Cc1nc2c(F)cccc2n1-c1nc(N)nc(Nc2ccc(OC(F)F)cc2)n1` [Cpd 96, N-[4-(difluoromethoxy)phenyl]-6-(4-fluoro-2-methyl-1H-benzimidazol-1-yl)-1,3,5-triazine-2,4-diamine] was 10 to 100 nM; that for `CCc1nc2ccccc2n1-c1nncc(Nc2ccc(OC(F)F)cc2)n1` [Cpd 100, N-[4-(difluoromethoxy)phenyl]-3-(2-ethyl-1H-benzimidazol-1-yl)-1,2,4-triazin-5-amine] was 10 to 100 nM. The value for `Nc1nc(Nc2ccc(C(F)(F)F)cc2)nc(-n2c(C3CC3)nc3c(F)cccc32)n1` [Cpd 85, 6-(2-cyclopropyl-4-fluoro-1H-benzimidazol-1-yl)-N-[4-(trifluoromethyl)phenyl]-1,3,5-triazine-2,4-diamine] was 10 to 100 nM.

Take `Cc1nc2ccc(F)cc2n1-c1nc(N)nc(Nc2ccc(Cl)cc2)n1` [Cpd 166, N-(4-chlorophenyl)-6-(6-fluoro-2-methyl-1H-benzimidazol-1-yl)-1,3,5-triazine-2,4-diamine]: the EC50 was 10 to 100 nM. Compound `Cc1nc2ncccc2n1-c1nc(N)nc(Nc2ccc(C(F)(F)F)cc2)n1` [Cpd 17, 6-(2-methyl-1H-imidazo[4,5-b]pyridin-1-yl)-N-[4-(trifluoromethyl)phenyl]-1,3,5-triazine-2,4-diamine] showed a half-maximal effective concentration (EC50) of 100 to 3000 nM. Compound `Cc1ccc(Nc2nc(N)nc(-n3c(C)nc4ccc(F)cc43)n2)cc1` [Cpd 165, 6-(6-fluoro-2-methyl-1H-benzimidazol-1-yl)-N-(4-methylphenyl)-1,3,5-triazine-2,4-diamine] yielded an EC50 of 1 to 10 nM.

On to `Nc1nc(Nc2ccc(C(F)(F)F)cc2)nc(-n2c(C3CC3)nc3cc(F)ccc32)n1` [Cpd 65, 6-(2-cyclopropyl-5-fluoro-1H-benzimidazol-1-yl)-N-[4-(trifluoromethyl)phenyl]-1,3,5-triazine-2,4-diamine], for which the EC50 fell in the range of 100 to 3000 nM. Turning to `Cc1nc2ccccc2n1-c1nc(N)nc(Nc2ccc3occc3c2)n1` [Cpd 8, N-(1-benzofuran-5-yl)-6-(2-methyl-1H-benzimidazol-1-yl)-1,3,5-triazine-2,4-diamine], the EC50 was 10 to 100 nM. The value for `Cc1nc2ccccc2n1-c1nc(N)nc(Nc2ccc(C(F)(F)F)c(F)c2)n1` [Cpd 5, N-[3-fluoro-4-(trifluoromethyl)phenyl]-6-(2-methyl-1H-benzimidazol-1-yl)-1,3,5-triazine-2,4-diamine] was 100 to 3000 nM. With `Cc1nc2ncc(Cl)cc2n1-c1nc(N)nc(Nc2ccc(OC(F)(F)F)cc2)n1` [Cpd 152, 6-(6-chloro-2-methyl-1H-imidazo[4,5-b]pyridin-1-yl)-N-[4-(trifluoromethoxy)phenyl]-1,3,5-triazine-2,4-diamine], the EC50 lay within 100 to 3000 nM. `Cc1nc2cc(Cl)ccc2n1-c1nc(N)nc(Nc2ccc(C(F)(F)F)cc2)n1` [Cpd 74, 6-(5-chloro-2-methyl-1H-benzimidazol-1-yl)-N-[4-(trifluoromethyl)phenyl]-1,3,5-triazine-2,4-diamine] displayed an EC50 of 100 to 3000 nM. The value for `Cc1nc2ccc(F)cc2n1-c1nc(N)nc(Nc2ccc(OC(F)F)c(F)c2)n1` [Cpd 29, N-[4-(difluoromethoxy)-3-fluorophenyl]-6-(6-fluoro-2-methyl-1H-benzimidazol-1-yl)-1,3,5-triazine-2,4-diamine] was 10 to 100 nM; that for `CCc1nc2c(F)cccc2n1-c1nc(N)nc(Nc2ccc(C)cc2)n1` [Cpd 213, 6-(2-ethyl-4-fluoro-1H-benzimidazol-1-yl)-N-(4-methylphenyl)-1,3,5-triazine-2,4-diamine] was 1 to 10 nM.

Turning to `Cc1nc2cc(F)ccc2n1-c1nc(N)nc(Nc2ccc(C(F)(F)F)cc2)n1` [Cpd 27, 6-(5-fluoro-2-methyl-1H-benzimidazol-1-yl)-N-[4-(trifluoromethyl)phenyl]-1,3,5-triazine-2,4-diamine], the 50% effective concentration (EC50) lay within 100 to 3000 nM. Next, `Cc1nc2cc(F)ccc2n1-c1nc(N)nc(Nc2ccc(C(F)(F)F)nc2)n1` [Cpd 52, 6-(5-fluoro-2-methyl-1H-benzimidazol-1-yl)-N-[6-(trifluoromethyl)pyridin-3-yl]-1,3,5-triazine-2,4-diamine]: 100 to 3000 nM.

`Cc1nc2c(F)cc(F)cc2n1-c1nc(N)nc(Nc2ccc(OC(F)F)cc2)n1` [Cpd 47, N-[4-(difluoromethoxy)phenyl]-6-(4,6-difluoro-2-methyl-1H-benzimidazol-1-yl)-1,3,5-triazine-2,4-diamine] yielded an EC50 of 10 to 100 nM.

`Cc1nc2ccccc2n1-c1nc(N)nc(Nc2ccc(N3CCOCC3)cc2)n1` [Cpd 135, 6-(2-methyl-1H-benzimidazol-1-yl)-N-[4-(morpholin-4-yl)phenyl]-1,3,5-triazine-2,4-diamine] showed an EC50 of 100 to 3000 nM. Next, `CCc1nc2cc(F)ccc2n1-c1nc(N)nc(Nc2ccc(OC)cc2)n1` [Cpd 173, 6-(2-ethyl-5-fluoro-1H-benzimidazol-1-yl)-N-(4-methoxyphenyl)-1,3,5-triazine-2,4-diamine]: 1 to 10 nM; `CCc1nc2c(F)cc(F)cc2n1-c1nc(N)nc(Nc2ccc(OC(F)F)c(F)c2)n1` [Cpd 50, N-[4-(difluoromethoxy)-3-fluorophenyl]-6-(2-ethyl-4,6-difluoro-1H-benzimidazol-1-yl)-1,3,5-triazine-2,4-diamine]: 10 to 100 nM. In the case of `Cc1nc2ncc(F)cc2n1-c1nc(N)nc(Nc2ccc(OC(F)F)cc2)n1` [Cpd 78, N-[4-(difluoromethoxy)phenyl]-6-(6-fluoro-2-methyl-1H-imidazo[4,5-b]pyridin-1-yl)-1,3,5-triazine-2,4-diamine], the EC50 is 100 to 3000 nM. `Nc1nc(Nc2ccc(OC(F)F)cc2)nc(-n2c(C3CC3)nc3cc(F)c(F)cc32)n1` [Cpd 83, 6-(2-cyclopropyl-5,6-difluoro-1H-benzimidazol-1-yl)-N-[4-(difluoromethoxy)phenyl]-1,3,5-triazine-2,4-diamine] registered an EC50 of 10 to 100 nM. Take `Cc1ccc(Nc2nc(N)nc(-n3c(C)nc4c(F)cccc43)n2)cc1` [Cpd 180, 6-(4-fluoro-2-methyl-1H-benzimidazol-1-yl)-N-(4-methylphenyl)-1,3,5-triazine-2,4-diamine]: the EC50 lay in the range of 1 to 10 nM. Next, `Cc1nc2ccccc2n1-c1nc(N)nc(Nc2ccc3ncccc3c2)n1` [Cpd 14, 6-(2-methyl-1H-benzimidazol-1-yl)-N-(quinolin-6-yl)-1,3,5-triazine-2,4-diamine]: 1 to 10 nM. Next, `CCc1nc2ccc(F)cc2n1-c1nc(N)nc(Nc2ccc(Cl)cc2)n1` [Cpd 170, N-(4-chlorophenyl)-6-(2-ethyl-6-fluoro-1H-benzimidazol-1-yl)-1,3,5-triazine-2,4-diamine]: 10 to 100 nM.

What is called EC50 is the concentration that produces a half-maximal response. A low value points to higher potency in that assay.
